Patent US10597388B2, “Pyridazinone herbicides” (FMC CORPORATION, priority 2014, dated 2020)

What was measured:
Assay in all cases: Test C greenhouse herbicide test, pre- and postemergence
Type in all cases: in vivo
[1] = test system: barnyardgrass (Echinochloa crus-galli)
Method in brief: (§1)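 Percent-control ratings (0 none, 100 complete) came from visual comparison with controls held alongside in the greenhouse for 13–15 d. Treatments covered soil application at sowing and foliar application to young plants 2–18 cm tall.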

[2] = test system: blackgrass (Alopecurus myosuroides)
Method in brief: as §1

corn (Zea mays) = test system: corn (Zea mays)
Method in brief: as §1

[3] = test system: crabgrass, large (large crabgrass, Digitaria sanguinalis)
Method in brief: as §1

[4] = test system: foxtail, giant (giant foxtail, Setaria faberii)
Method in brief: as §1

[5] = test system: galium (catchweed bedstraw, Galium aparine)
Method in brief: as §1

[6] = test system: lambsquarters (Chenopodium album)
Method in brief: as §1

[7] = test system: morningglory (Ipomoea coccinea)
Method in brief: as §1

[8] = test system: oilseed rape (Brassica napus)
Method in brief: as §1

[9] = test system: pigweed (Amaranthus retroflexus)
Method in brief: as §1

[10] = test system: ragweed (common ragweed, Ambrosia elatior)
Method in brief: as §1

[11] = test system: ryegrass, Italian (Italian ryegrass, Lolium multiflorum)
Method in brief: as §1

[12] = test system: velvetleaf (Abutilon theophrasti)
Method in brief: as §1

[13] = test system: waterhemp (common waterhemp, Amaranthus rudis)
Method in brief: as §1

[14] = test system: wheat (winter wheat, Triticum aestivum)
Method in brief: as §1

[15] = Postemergence, 31 g ai/ha, 0 to 100 scale (0 no effect, 100 complete control)
[16] = Postemergence, 125 g ai/ha, scale 0 to 100, 0 is no effect, 100 is complete control
[17] = Postemergence, 250 g ai/ha, scale 0 to 100, 0 no effect, 100 complete control, 13 to 15 d
[18] = Preemergence, 31 g ai/ha, scale 0 to 100, 0 is no effect, 100 is complete control
[19] = Preemergence, 62 g ai/ha, scale 0 to 100, 0 is no effect, 100 is complete control
[20] = Preemergence, 125 g ai/ha, scale 0 to 100, 0 is no effect, 100 is complete control
[21] = Preemergence, 250 g ai/ha, scale 0 to 100, 0 no effect, 100 complete control
[22] = postemergence, 62 g ai/ha, scale 0 to 100, 0 no effect, 100 complete control

## Cc1ccc2ccccc2c1-c1c(O)c(Br)nn(C)c1=O [Compound 23]
[1]; [15]
  Barnyardgrass plant response rating: 40
[1]; [16]
  Plant response rating, Barnyardgrass: 75
[1]; [17]
  Plant response rating, Barnyardgrass: 85
[1]; [18]
  Plant response rating, Barnyardgrass: 10
[1]; [19]
  Plant response rating, Barnyardgrass: 85
[1]; [20]
  Plant response rating, Barnyardgrass: 85
[1]; [21]
  Barnyardgrass plant response rating: 85
[1]; [22]
  Barnyardgrass plant response rating: 60
[2]; [15]
  Blackgrass plant response rating: 50
[2]; [16]
  Plant response rating, Blackgrass: 70
[2]; [17]
  Plant response rating, Blackgrass: 85
[2]; [18]
  Plant response rating, Blackgrass: 45
[2]; [19]
  Plant response rating, Blackgrass: 85
[2]; [20]
  Plant response rating, Blackgrass: 90
[2]; [21]
  Blackgrass plant response rating: 90
[2]; [22]
  Blackgrass plant response rating: 60
Corn (Zea mays); [15]
  Corn plant response rating: 10
Corn (Zea mays); [16]
  Plant response rating, Corn: 10
Corn (Zea mays); [17]
  Plant response rating, Corn: 25
Corn (Zea mays); [18]
  Plant response rating, Corn: 0
Corn (Zea mays); [19]
  Plant response rating, Corn: 0
Corn (Zea mays); [20]
  Plant response rating, Corn: 30
Corn (Zea mays); [21]
  Corn plant response rating: 65
Corn (Zea mays); [22]
  Corn plant response rating: 30
[3]; [15]
  Crabgrass, Large plant response rating: 5
[3]; [16]
  Plant response rating, Crabgrass, Large: 35
[3]; [17]
  Plant response rating, Crabgrass, Large: 45
[3]; [18]
  Plant response rating, Crabgrass, Large: 5
[3]; [19]
  Plant response rating, Crabgrass, Large: 45
[3]; [20]
  Plant response rating, Crabgrass, Large: 75
[3]; [21]
  Crabgrass, Large plant response rating: 95
[3]; [22]
  Crabgrass, Large plant response rating: 20
[4]; [15]
  Foxtail, Giant plant response rating: 30
[4]; [16]
  Plant response rating, Foxtail, Giant: 85
[4]; [17]
  Plant response rating, Foxtail, Giant: 90
[4]; [18]
  Plant response rating, Foxtail, Giant: 30
[4]; [19]
  Plant response rating, Foxtail, Giant: 85
[4]; [20]
  Plant response rating, Foxtail, Giant: 85
[4]; [21]
  Foxtail, Giant plant response rating: 100
[4]; [22]
  Foxtail, Giant plant response rating: 65
[5]; [15]
  Galium plant response rating: 95
[5]; [16]
  Plant response rating, Galium: 100
[5]; [17]
  Plant response rating, Galium: 100
[5]; [18]
  Plant response rating, Galium: 98
[5]; [19]
  Plant response rating, Galium: 100
[5]; [20]
  Plant response rating, Galium: 100
[5]; [21]
  Galium plant response rating: 100
[5]; [22]
  Galium plant response rating: 100
[6]; [15]
  Lambsquarters plant response rating: 85
[6]; [16]
  Plant response rating, Lambsquarters: 95
[6]; [17]
  Plant response rating, Lambsquarters: 98
[6]; [18]
  Plant response rating, Lambsquarters: 85
[6]; [19]
  Plant response rating, Lambsquarters: 85
[6]; [20]
  Plant response rating, Lambsquarters: 95
[6]; [21]
  Lambsquarters plant response rating: 95
[6]; [22]
  Lambsquarters plant response rating: 95
[7]; [15]
  Morningglory plant response rating: 100
[7]; [16]
  Plant response rating, Morningglory: 100
[7]; [17]
  Plant response rating, Morningglory: 100
[7]; [18]
  Plant response rating, Morningglory: 85
[7]; [19]
  Plant response rating, Morningglory: 90
[7]; [20]
  Plant response rating, Morningglory: 95
[7]; [21]
  Morningglory plant response rating: 98
[7]; [22]
  Morningglory plant response rating: 100
[8]; [15]
  Oilseed Rape plant response rating: 5
[8]; [16]
  Plant response rating, Oilseed Rape: 45
[8]; [17]
  Plant response rating, Oilseed Rape: 10
[8]; [18]
  Plant response rating, Oilseed Rape: 50
[8]; [19]
  Plant response rating, Oilseed Rape: 90
[8]; [20]
  Plant response rating, Oilseed Rape: 90
[8]; [21]
  Oilseed Rape plant response rating: 100
[8]; [22]
  Oilseed Rape plant response rating: 15
[9]; [15]
  Pigweed plant response rating: 90
[9]; [16]
  Plant response rating, Pigweed: 98
[9]; [17]
  Plant response rating, Pigweed: 98
[9]; [18]
  Plant response rating, Pigweed: 100
[9]; [19]
  Plant response rating, Pigweed: 100
[9]; [20]
  Plant response rating, Pigweed: 100
[9]; [21]
  Pigweed plant response rating: 100
[9]; [22]
  Pigweed plant response rating: 98
[10]; [15]
  Ragweed plant response rating: 85
[10]; [16]
  Plant response rating, Ragweed: 95
[10]; [17]
  Plant response rating, Ragweed: 98
[10]; [18]
  Plant response rating, Ragweed: 85
[10]; [19]
  Plant response rating, Ragweed: 85
[10]; [20]
  Plant response rating, Ragweed: 95
[10]; [21]
  Ragweed plant response rating: 90
[10]; [22]
  Ragweed plant response rating: 90
[11]; [15]
  Ryegrass, Italian plant response rating: 85
[11]; [16]
  Plant response rating, Ryegrass, Italian: 95
[11]; [17]
  Plant response rating, Ryegrass, Italian: 95
[11]; [18]
  Plant response rating, Ryegrass, Italian: 85
[11]; [19]
  Plant response rating, Ryegrass, Italian: 90
[11]; [20]
  Plant response rating, Ryegrass, Italian: 95
[11]; [21]
  Ryegrass, Italian plant response rating: 95
[11]; [22]
  Ryegrass, Italian plant response rating: 90
[12]; [15]
  Velvetleaf plant response rating: 70
[12]; [16]
  Plant response rating, Velvetleaf: 85
[12]; [17]
  Plant response rating, Velvetleaf: 90
[12]; [19]
  Plant response rating, Velvetleaf: 90
[12]; [20]
  Plant response rating, Velvetleaf: 100
[12]; [21]
  Velvetleaf plant response rating: 100
[12]; [22]
  Velvetleaf plant response rating: 85
[13]; [15]
  Waterhemp plant response rating: 80
[13]; [16]
  Plant response rating, Waterhemp: 85
[13]; [17]
  Plant response rating, Waterhemp: 98
[13]; [19]
  Plant response rating, Waterhemp: 100
[13]; [20]
  Plant response rating, Waterhemp: 100
[13]; [21]
  Waterhemp plant response rating: 100
[13]; [22]
  Waterhemp plant response rating: 55
[14]; [15]
  Wheat plant response rating: 10
[14]; [16]
  Plant response rating, Wheat: 35
[14]; [17]
  Plant response rating, Wheat: 30
[14]; [19]
  Plant response rating, Wheat: 85
[14]; [20]
  Plant response rating, Wheat: 90
[14]; [21]
  Wheat plant response rating: 90
[14]; [22]
  Wheat plant response rating: 30

## Cc1ccc2sc(C)c(-c3c(OC(=O)C(C)(C)C)c(C)nn(C)c3=O)c2c1 [Compound 26]
[1]; [15]
  Barnyardgrass plant response rating: 20
[1]; [16]
  Plant response rating, Barnyardgrass: 30
[1]; [17]
  Plant response rating, Barnyardgrass: 35
[1]; [22]
  Barnyardgrass plant response rating: 25
[2]; [15]
  Blackgrass plant response rating: 50
[2]; [16]
  Plant response rating, Blackgrass: 60
[2]; [17]
  Plant response rating, Blackgrass: 75
[2]; [22]
  Blackgrass plant response rating: 55
Corn (Zea mays); [15]
  Corn plant response rating: 0
Corn (Zea mays); [16]
  Plant response rating, Corn: 5
Corn (Zea mays); [17]
  Plant response rating, Corn: 5
Corn (Zea mays); [22]
  Corn plant response rating: 10
[3]; [15]
  Crabgrass, Large plant response rating: 5
[3]; [16]
  Plant response rating, Crabgrass, Large: 20
[3]; [17]
  Plant response rating, Crabgrass, Large: 25
[3]; [22]
  Crabgrass, Large plant response rating: 20
[4]; [15]
  Foxtail, Giant plant response rating: 15
[4]; [16]
  Plant response rating, Foxtail, Giant: 40
[4]; [17]
  Plant response rating, Foxtail, Giant: 65
[4]; [22]
  Foxtail, Giant plant response rating: 25
[5]; [15]
  Galium plant response rating: 90
[5]; [16]
  Plant response rating, Galium: 95
[5]; [17]
  Plant response rating, Galium: 95
[5]; [22]
  Galium plant response rating: 95
[6]; [15]
  Lambsquarters plant response rating: 75
[6]; [16]
  Plant response rating, Lambsquarters: 90
[6]; [17]
  Plant response rating, Lambsquarters: 98
[6]; [22]
  Lambsquarters plant response rating: 85
[7]; [15]
  Morningglory plant response rating: 98
[7]; [16]
  Plant response rating, Morningglory: 100
[7]; [17]
  Plant response rating, Morningglory: 100
[7]; [22]
  Morningglory plant response rating: 100
[8]; [15]
  Oilseed Rape plant response rating: 0
[8]; [16]
  Plant response rating, Oilseed Rape: 5
[8]; [17]
  Plant response rating, Oilseed Rape: 5
[8]; [22]
  Oilseed Rape plant response rating: 0
[9]; [15]
  Pigweed plant response rating: 75
[9]; [16]
  Plant response rating, Pigweed: 98
[9]; [17]
  Plant response rating, Pigweed: 95
[9]; [22]
  Pigweed plant response rating: 85
[10]; [15]
  Ragweed plant response rating: 15
[10]; [16]
  Plant response rating, Ragweed: 85
[10]; [17]
  Plant response rating, Ragweed: 90
[10]; [22]
  Ragweed plant response rating: 70
[11]; [15]
  Ryegrass, Italian plant response rating: 85
[11]; [16]
  Plant response rating, Ryegrass, Italian: 90
[11]; [17]
  Plant response rating, Ryegrass, Italian: 90
[11]; [22]
  Ryegrass, Italian plant response rating: 90
[12]; [15]
  Velvetleaf plant response rating: 5
[12]; [16]
  Plant response rating, Velvetleaf: 60
[12]; [17]
  Plant response rating, Velvetleaf: 70
[12]; [22]
  Velvetleaf plant response rating: 30
[13]; [15]
  Waterhemp plant response rating: 75
[13]; [16]
  Plant response rating, Waterhemp: 85
[13]; [17]
  Plant response rating, Waterhemp: 95
[13]; [22]
  Waterhemp plant response rating: 85
[14]; [15]
  Wheat plant response rating: 0
[14]; [16]
  Plant response rating, Wheat: 0
[14]; [17]
  Plant response rating, Wheat: 5
[14]; [22]
  Wheat plant response rating: 0
